Target: T1, Lmo1603 (Listeria monocytogenes, UniProt Q8Y6T0)
T1 construct: tag removal not mentioned
Assay: p-nitroaniline release, absorbance […] nm
Type: biochemical
Details: 50 mM Tris-HCl pH 8.5, 2 mM substrate, 5 uM enzyme, 12 h

T1 sequence (Q8Y6T0 entry or part of it): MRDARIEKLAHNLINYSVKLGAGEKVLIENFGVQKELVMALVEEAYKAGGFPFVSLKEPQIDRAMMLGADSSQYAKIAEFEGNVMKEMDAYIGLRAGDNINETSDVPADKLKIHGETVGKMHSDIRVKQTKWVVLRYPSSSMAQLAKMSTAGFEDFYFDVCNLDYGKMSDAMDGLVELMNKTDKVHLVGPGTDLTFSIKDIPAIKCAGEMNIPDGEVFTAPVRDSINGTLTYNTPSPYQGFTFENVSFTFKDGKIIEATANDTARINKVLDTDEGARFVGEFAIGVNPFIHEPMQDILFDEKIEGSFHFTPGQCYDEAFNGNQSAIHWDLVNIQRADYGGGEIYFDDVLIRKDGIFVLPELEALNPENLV

| SMILES | p-nitroaniline release, absorbance 405 nm (cobalt-activated enzyme) | p-nitroaniline release, absorbance 405 nm |
| --- | --- | --- |
| N=C(N)NCCC[C@H](N)C(=O)Nc1ccc([N+](=O)[O-])cc1 [Arg-pNA] | Lmo1603 showed the highest activity towards Arg-pNA, followed by Leu-pNA and Ala-pNA |  |
| CC(C)C[C@H](N)C(=O)Nc1ccc([N+](=O)[O-])cc1 [Leu-pNA] |  | Lmo1603 showed the highest activity towards Arg-pNA, followed by Leu-pNA and Ala-pNA |
